Common to all, as to assay: inhibition of tumour cell growth, NCI panel, 48 h
Experiment [1] deals with MOLT-4 leukemia.
The subject of experiment [2] is UO-31 renal.
Experiment [3] deals with HOP-62 NSCLC.
For experiment [4], the system named is KM12 colon.
The subject of experiment [5] is UACC-257 melanoma.
Experiment [6] concerns M14 melanoma.
Experiment [7] has as its system HCT-116 colon.
The test system of experiment [8] is SK-MEL-5 melanoma.
In experiment [9] the test system is HCC-2998 colon.
Experiment [10] deals with LXFL 529 NSCLC.

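Method: 48-hour compound exposure of cells in 96-well plates, five concentrations, linear interpolation of endpoints. GI50 is the concentration that inhibits growth by half. TGI: total growth inhibition.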

Take `Cc1cc2nc(C(Cl)Cl)nc(-c3ccc(Cl)cc3)n2n1`: the GI50 was 1.01 µM in experiment [1]; 1.42 µM in experiment [2]; 0.864 µM in experiment [3]; 0.414 µM in [4]; 2.3 µM in [5]; 1.31 µM in experiment [6]. Also, the values for the GI50 in experiment [7], in experiment [8] and in experiment [9] were 0.566 µM, 1.68 µM and 0.788 µM, respectively. Further, the TGI in experiment [1] is greater than 100 µM; in [2], 3.92 µM; in [3] it was 4.27 µM; in experiment [4], 1.74 µM; in experiment [5], 5.49 µM; in experiment [6], 3.25 µM. The TGI in experiment [7] was greater than 33.1 µM; in experiment [8], 3.48 µM; in experiment [9], 2.33 µM.

`O=C1c2cccnc2-c2nc(-c3ccccc3[N+](=O)[O-])cc3c2c1nc1ccccc13`: the TGI in [1] is greater than 100 µM; in experiment [2] it was 32.5 µM; in [3], 41 µM; in [4], greater than 55 µM; in experiment [5], 13.3 µM; in [6] it was 10.7 µM. Also, the TGI in experiment [7] is 16.7 µM; in experiment [8], 8.23 µM; in experiment [9], 45 µM. In addition, the GI50 was 12.5 µM in experiment [2]; 16 µM in experiment [3]; 14.1 µM in experiment [4]; 2.01 µM in experiment [5]; 2.99 µM in [6]; 5.83 µM in experiment [7]. The GI50 was 2.6 µM in [8] and 19.7 µM in [9].

As to `CN(CC(=O)O)S(=O)(=O)c1ccc2ccccc2c1`, the TGI in experiment [1], in experiment [10], in experiment [2], in experiment [4], in experiment [5] and in experiment [6] was greater than 100 µM throughout. For the same compound, the TGI in experiment [8] and in experiment [9] was greater than 100 µM throughout.

Turning to `Clc1cccc(Cc2cn3cc(-c4ccccc4)nc3s2)c1Cl`, the GI50 in experiment [1] was greater than 100 µM; in [2], greater than 100 µM; in experiment [3], 3.9 µM; in experiment [4], 6.35 µM; in [5] it was 67.3 µM; in experiment [6] it was greater than 100 µM. Further, the GI50 in [7] was greater than 100 µM; in experiment [8], greater than 100 µM; in experiment [9], 59.5 µM. For the same compound, the TGI was greater than 100 µM in experiment [1]; greater than 100 µM in [2]; 47.7 µM in experiment [3]; greater than 100 µM in experiment [4]; greater than 100 µM in experiment [5]; greater than 100 µM in experiment [6]. The TGI in experiment [7], in [8] and in experiment [9] was greater than 100 µM throughout.

For the compound `O=C(N/C(=C\c1cc(Cl)ccc1Cl)c1nc2[nH]c(=S)[nH]c(=O)c2[nH]1)c1ccccc1`, the TGI in experiment [1] was greater than 80.8 µM; in experiment [10], 45.2 µM; in experiment [2], greater than 76.4 µM; in experiment [3], greater than 100 µM; in [4], 73.6 µM; in experiment [6], greater than 56.5 µM. Further, the results for the TGI in [7], in [8] and in [9] were 21.3 µM, greater than 100 µM and 30.7 µM, respectively.

Turning to `CN(C)c1ccc(-c2cc(-c3ccc(Nc4nc(Nc5ccc(Cl)cc5)nc(Nc5ccc(Cl)cc5)n4)cc3)no2)cc1`, the GI50 in [1] was 1.32 µM; in [2], 2.69 µM; in [3], 4.8 µM; in experiment [4], 4.11 µM; in experiment [5], 9.28 µM; in experiment [6], 2.62 µM. The GI50 in [7] is 2.84 µM; in [8] it was 2.07 µM; in [9], 7.37 µM. For the same compound, the TGI in [1] was determined as 3.38 µM; in experiment [2], 17.7 µM; in experiment [3] it was 24.1 µM; in experiment [4], 25.3 µM; in [5], 68.3 µM; in experiment [6], 13.3 µM. For the same compound, the values for the TGI in [7], in experiment [8] and in [9] were 11.8 µM, 9.07 µM and 96.7 µM, respectively.

With `COc1ccc(-c2cc(=O)c3ccc(O)cc3o2)c(OC)c1OC`, the TGI in [10], in experiment [3], in experiment [4], in [5], in [6] and in experiment [7] was greater than 100 µM throughout. Also, in experiment [9], the TGI was greater than 100 µM.

Turning to `CCOC(=O)C1=C(C)CC2C(=O)OC(=O)C2C1(C)C` (centres undefined), the TGI in [1], in [10], in experiment [2], in experiment [4], in experiment [5] and in [6] was greater than 100 µM in each case. Besides, the TGI in [8] and in experiment [9] was greater than 100 µM each time.

Regarding `O=C(Nc1ccc(F)cc1F)c1cc(I)ccc1O`, the GI50 is 3.15 µM in experiment [1]; 1.63 µM in experiment [2]; 2.42 µM in experiment [3]; 2.93 µM in [4]; 2.09 µM in [5]; 2.21 µM in [6]. The GI50 in [7] is 2.53 µM; in experiment [8], 1.7 µM; in experiment [9], 3.73 µM. Moreover, the TGI in experiment [1] is 16.3 µM; in experiment [2], 6.11 µM; in experiment [3] it was 7.87 µM; in experiment [4], 9.53 µM; in experiment [5], 7.09 µM; in experiment [6], 8.05 µM. The values for the TGI in [7], in [8] and in [9] were 7.6 µM, 3.35 µM and 47 µM, respectively.

For the compound `O=C1/C(=C/c2ccc([N+](=O)[O-])cc2)COc2ccc(O)c(O)c21`, the GI50 in [1] is 1.29 µM; in [2], 0.696 µM; in experiment [3], 2.57 µM; in experiment [4], 1.58 µM; in [5], 1.89 µM; in experiment [6] it was 1.54 µM. Further, the GI50 in experiment [7] was 1.57 µM; in [8], 2.12 µM; in experiment [9] it was 1.76 µM. In addition, the TGI in [1] was greater than 100 µM; in experiment [2], 2.23 µM; in experiment [3] it was 6.34 µM; in experiment [4] it was 3.47 µM; in experiment [5] it was 4.32 µM; in [6], 3.3 µM. Also, the TGI in [7] came to 3.35 µM; in experiment [8] it was 4.61 µM; in experiment [9], 3.38 µM.

These data come from PubChem BioAssay (NCI).
